Data on 11 molecules can be found in patent US12435060B2, “Acylamino bridged heterocyclic compound, and composition and application thereof” (BEIJING SCITECH-MQ PHARMACEUTICALS LIMITED, priority 2019, dated 2025).

For this test, the system named is HT29 cells. In words: Inhibition of cell necrosis (CCK8 method), induced programmed necrosis of HT29 cells. The format is cell-based. Particulars: Homo sapiens, HT-29; rescue from necrosis induced by TNF-α 20 ng/mL, AT-406 1 μM, Z-VAD-FMK 20 μM; 16-20 hours; CCK-8, OD 450 nm. The method, boiled down:
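Rescue from programmed necrosis was scored by CCK-8 absorbance at 450 nm after 16-20 h of TNF-α (20 ng/mL), AT-406 (1 μM) and Z-VAD-FMK (20 μM) at 37 °C, 5% CO2. HT29 cells had received compound 30 min earlier across nine 4-fold dilutions (top 25000 nM final). IC50 came from % inhibition relative to uninduced and induced-only wells.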
Usually IC50 stands for the concentration that gives 50% inhibition. The molecule `O=C(Nc1cc(-c2cc(OCC3CCOCC3)ccc2Cl)ncn1)c1nnc(CC2CCCC2)[nH]1` [Example 468, 5-(cyclopentylmethyl)-N-(6-(2-chloro-5-((tetrahydro-2H-pyran-4-yl)methoxy)phenyl)pyrimidin-4-yl)-4H-1,2,4-triazole-3-carboxamide] returned an IC50 of at most 100 nM.

In the case of `O=C(Nc1cc(-c2cc(OCC3CCOCC3)ccc2Cl)ncn1)c1nnc(CC2CCCCC2)[nH]1` [Example 469, 5-(cyclohexylmethyl)-N-(6-(2-chloro-5-((tetrahydro-2H-pyran-4-yl)methoxy)phenyl)pyrimidin-4-yl)-4H-1,2,4-triazole-3-carboxamide], the IC50 is at most 100 nM.

Take `O=C(Nc1cc(-c2cc(OCCC3CCOCC3)ccc2Cl)ncn1)c1nnc(Cc2ccccc2)[nH]1` [Example 470, 5-benzyl-N-(6-(2-chloro-5-(2-(tetrahydro-2H-pyran-4-yl)ethoxy)phenyl)pyrimidin-4-yl)-4H-1,2,4-triazole-3-carboxamide]: the IC50 is at most 100 nM.

The molecule `O=C(Nc1cc(-c2cc(OCCC3CCOCC3)ccc2Cl)ncn1)c1nnc(Cc2ccccc2F)[nH]1` [Example 471, N-(6-(2-chloro-5-(2-(tetrahydro-2H-pyran-4-yl)ethoxy)phenyl)pyrimidin-4-yl)-5-(2-fluorobenzyl)-4H-1,2,4-triazole-3-carboxamide] gave an IC50 of at most 100 nM.

For `O=C(Nc1cc(-c2cc(OCCC3CCOCC3)ccc2Cl)ncn1)c1nnc(CC2CCCC2)[nH]1` [Example 472, N-(6-(2-chloro-5-(2-(tetrahydro-2H-pyran-4-yl)ethoxy)phenyl)pyrimidin-4-yl)-5-(cyclopentylmethyl)-4H-1,2,4-triazole-3-carboxamide], the IC50 was at most 100 nM.

For `O=C(Nc1cc(-c2cc(OCCC3CCOCC3)ccc2Cl)ncn1)c1nnc(CC2CCCCC2)[nH]1` [Example 473, N-(6-(2-chloro-5-(2-(tetrahydro-2H-pyran-4-yl)ethoxy)phenyl)pyrimidin-4-yl)-5-(cyclohexylmethyl)-4H-1,2,4-triazole-3-carboxamide], the IC50 is at most 100 nM.

In turn, `Cc1ccc(S(=O)(=O)CCCC(C)(C)O)cc1-c1ccnc(NC(=O)c2nnc(Cc3ccccc3)[nH]2)c1` [Example 474, 5-benzyl-N-(4-(5-((4-hydroxy-4-methylpentyl)sulfonyl)-2-methylphenyl)pyridin-2-yl)-4H-1,2,4-triazole-3-carboxamide] returned an IC50 of 100 to 1000 nM.

Molecule `Cc1ccc(S(=O)(=O)CCCC(C)(C)O)cc1-c1ccnc(NC(=O)c2nnc(CC3CCCC3)[nH]2)c1` [Example 475, 5-(cyclopentylmethyl)-N-(4-(5-((4-hydroxy-4-methylpentyl)sulfonyl)-2-methylphenyl)pyridin-2-yl)-4H-1,2,4-triazole-3-carboxamide] had an IC50 of at most 100 nM.

Turning to `CC(C)(O)CCCOc1ccc(Cl)c(-c2ccnc(NC(=O)c3nnc(C(O)c4ccccc4F)[nH]3)c2)c1` (centres unmarked) [Example 476, N-(4-(2-chloro-5-((4-hydroxy-4-methylpentyl)oxy)phenyl)pyridin-2-yl)-5-((2-fluorophenyl)(hydroxyl)methyl)-4H-1,2,4-triazole-3-carboxamide], the IC50 lay in the range of 100 to 1000 nM.

Turning to `CC(C)(O)CCCOc1ccc(Cl)c(-c2ccnc(NC(=O)c3nnc([C@H](O)c4ccccc4)[nH]3)c2)c1` [Example 477, (R)-N-(4-(2-chloro-5-((4-hydroxy-4-methylpentyl)oxy)phenyl)pyridin-2-yl)-5-(hydroxyl(phenyl)methyl)-4H-1,2,4-triazole-3-carboxamide], the IC50 is 1000 to 10000 nM.

For the molecule `CC(C)(O)CCCOc1ccc(Cl)c(-c2ccnc(NC(=O)c3nnc([C@@H](O)c4ccccc4)[nH]3)c2)c1` [Example 478, (S)-N-(4-(2-chloro-5-((4-hydroxy-4-methylpentyl)oxy)phenyl)pyridin-2-yl)-5-(hydroxyl(phenyl)methyl)-4H-1,2,4-triazole-3-carboxamide], the IC50 was in the range of 100 to 1000 nM.
